Test results taken from US10696692B2, “Amido-benzyl sulfone and sulfoxide derivates” (Forma TM, LLC, priority 2012, dated 2020).
Where two headings read alike, the source gives them in different places.

Columns and labels:
NAMPT = NAMPT (Homo sapiens (Human), UniProt P43490); assay: Assay 1: Biochemical Inhibition Assay (NAMPT enzymatic reaction, NMN quantified by mass spectrometry); settings: read-out: Biochemical (IC50);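 also: recombinant His-tagged human NAMPT preincubated with compound 15 min, then reacted 30 min at rt with 1 µM NAM, 100 µM PRPP, 2.5 mM ATP, NMN product read by RapidFire MS, normalized to L-Cystathionine internal standard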
Sequence of NAMPT (P43490 whole entry): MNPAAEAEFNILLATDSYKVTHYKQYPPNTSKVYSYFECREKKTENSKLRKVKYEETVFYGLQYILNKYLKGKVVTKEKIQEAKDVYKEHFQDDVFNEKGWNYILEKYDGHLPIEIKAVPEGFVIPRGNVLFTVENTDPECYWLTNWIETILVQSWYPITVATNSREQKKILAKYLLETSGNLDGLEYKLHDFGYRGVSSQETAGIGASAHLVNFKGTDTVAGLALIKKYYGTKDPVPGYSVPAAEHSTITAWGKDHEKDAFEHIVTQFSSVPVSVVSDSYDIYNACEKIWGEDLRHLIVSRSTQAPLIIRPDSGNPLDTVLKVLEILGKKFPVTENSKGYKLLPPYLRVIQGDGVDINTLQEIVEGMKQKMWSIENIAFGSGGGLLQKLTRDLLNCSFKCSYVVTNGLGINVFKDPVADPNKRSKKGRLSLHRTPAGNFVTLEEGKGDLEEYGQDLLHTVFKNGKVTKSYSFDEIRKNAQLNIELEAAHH

A2780 cells = assay: Assay 2: In-Vitro Cell Proliferation Assay (A2780 cells, SRB readout, 72 hours); format: cell-based; settings: A2780 cells, 72 hours, SRB, read-out: Cell Proliferation (IC50);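 also: viable cells counted via sulforhodamine B staining, absorbance at 570 nm, after 72 h exposure at 37 °C, DMSO 0.1% as control, media-only background subtracted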

O=C(NCc1ccc(S(=O)(=O)[C@H]2CCOC2)cc1)c1cnc2nccn2c1 [Example 222, N-[[4-[(3S)-tetrahydrofuran-3-yl]sulfonylphenyl]methyl] imidazo[1,2-a]pyrimidine-6-carboxamide]
IC50 (NAMPT): 9.77 nM | IC50 (A2780 cells; Homo sapiens, A2780, 72 h): 423 nM

Nc1ncc2c(n1)CN(C(=O)NCc1ccc(S(=O)(=O)C3CCOCC3)cc1)C2 [Example 277, 2-amino-N-[(4-tetrahydropyran-4-ylsulfonylphenyl)methyl]-5,7-dihydropyrrolo[3,4-d]pyrimidine-6-carboxamide]
IC50 (NAMPT): 2000 nM | IC50 (A2780 cells; Homo sapiens, A2780, 72 h): 2000 nM

O=C(NCc1ccc(S(=O)(=O)N2CC3CCC(C2)O3)cc1)c1ccc2nccn2c1 [Example 4, Imidazo[1,2-a]pyridine-6-carboxylic acid 4-(8-oxa-3-aza-bicyclo[3.2.1]octane-3-sulfonyl]-benzylamide]
IC50 (NAMPT): 72 nM | IC50 (A2780 cells; Homo sapiens, A2780, 72 h): 7.4 nM

CN1CCC2CN(S(=O)(=O)c3ccc(CNC(=O)c4ccc5nccn5c4)cc3)CC21 (racemic) [Example 144, cis-Imidazo[1,2-a]pyridine-6-carboxylic acid 4-(1-methyl-hexahydro-pyrrolo[3,4-b]pyrrole-5-sulfonyl)-benzylamide]
IC50 (NAMPT): 54 nM | IC50 (A2780 cells; Homo sapiens, A2780, 72 h): 9.6 nM

CN1CC2CN(S(=O)(=O)c3ccc(CNC(=O)c4ccc5nccn5c4)cc3)CC(C1)O2 (racemic) [Example 142, cis-Imidazo[1,2-a]pyridine-6-carboxylic acid 4-(7-methyl-9-oxa-3,7-diaza-bicyclo[3.3.1]nonane-3-sulfonyl)-benzylamide]
IC50 (NAMPT): 113 nM | IC50 (A2780 cells; Homo sapiens, A2780, 72 h): 28.6 nM

O=C(NCc1ccc([S+]([O-])C2CCN(C3CCOCC3)CC2)cc1)c1ccc2nccn2c1 (stereo not drawn) [Example 384, N-[[4-[(1-tetrahydropyran-4-yl-4-piperidyl)sulfinyl]phenyl]methyl]imidazo[1,2-a] pyridine-6-carboxamide]
IC50 (NAMPT): 36.2 nM | IC50 (A2780 cells; Homo sapiens, A2780, 72 h): 39.1 nM

O=C(NCc1ccc(S(=O)(=O)C2CCCOC2)cc1)c1cc2cnccc2[nH]1 (racemic) [Example 154, 1H-Pyrrolo[3,2-c]pyridine-2-carboxylic acid 4-(tetrahydro-pyran-3-sulfonyl)-benzylamide]
IC50 (NAMPT): 33.1 nM | IC50 (A2780 cells; Homo sapiens, A2780, 72 h): 18.5 nM

CC(C)(C)OC(=O)N1CCC2(CC1)CCN(S(=O)(=O)c1ccc(CNC(=O)c3ccc4nccn4c3)cc1)CC2 [Example 121, 9-(4-{[(Imidazo[1,2-a]pyridine-6-carbonyl)-amino]-methyl}-benzenesulfonyl)-3,9-diaza-spiro[5.5]undecane-3-carboxylic acid tert-butyl ester]
IC50 (NAMPT): 5.8 nM | IC50 (A2780 cells; Homo sapiens, A2780, 72 h): 1.1 nM

O=C(NCc1ccc(S(=O)(=O)C2CCN(C3COC3)CC2)cc1)c1cc2cnccc2[nH]1 [Example 115, 1H-Pyrrolo[3,2-c]pyridine-2-carboxylic acid 4-(1-oxetan-3-yl-piperidine-4-sulfonyl)-benzylamide]
IC50 (NAMPT): 37.3 nM | IC50 (A2780 cells; Homo sapiens, A2780, 72 h): 11.5 nM

O=C(NCc1ccc(S(=O)(=O)[C@@H]2CCOC2)cc1)c1cnc2[nH]ncc2c1 [Example 90, 1H-Pyrazolo[3,4-b]pyridine-5-carboxylic acid 4-[(R)-(tetrahydro-furan-3-yl)sulfonyl]-benzylamide]
IC50 (NAMPT): 227 nM | IC50 (A2780 cells): 1800 nM

O=C(NCc1ccc(S(=O)(=O)[C@H]2CCOC2)cc1)c1ccc2nccn2c1 [Example 223, N-[[4-[(3S)-tetrahydrofuran-3-yl]sulfonylphenyl]methyl] imidazo[1,2-a]pyridine-6-carboxamide]
IC50 (NAMPT): 64.2 nM | IC50 (A2780 cells; Homo sapiens, A2780, 72 h): 105 nM

CC(C)(C)OC(=O)N1CCCCC12CCCN(S(=O)(=O)c1ccc(CNC(=O)c3ccc4nccn4c3)cc1)C2 (racemic) [Example 123]
IC50 (NAMPT): 37.4 nM | IC50 (A2780 cells; Homo sapiens, A2780, 72 h): 17.2 nM

O=C(NCc1ccc(S(=O)(=O)C2CCOCC2)cc1)c1cnc2[nH]ncc2c1 [Example 198, N-[(4-tetrahydropyran-4-ylsulfonylphenyl)methyl]-1H-pyrazolo[3,4-b]pyridine-5-carboxamide]
IC50 (NAMPT): 308 nM | IC50 (A2780 cells; Homo sapiens, A2780, 72 h): 452 nM

O=C(NCc1ccc(S(=O)(=O)N2CCC3(CCCO3)C2)cc1)c1ccc2nccn2c1 (stereo not drawn) [Example 219, N-[[4-(1-oxa-7-azaspiro[4.4]nonan-7-ylsulfonyl)phenyl]methyl] imidazo[1,2-a]pyridine-6-carboxamide]
IC50 (NAMPT): 8.45 nM | IC50 (A2780 cells; Homo sapiens, A2780, 72 h): 2.17 nM

O=C(NCc1ccc(S(=O)(=O)[C@H]2CCOC2)cc1)c1cnc2nccn2c1 [Example 76, Imidazo[1,2-a]pyrimidine-6-carboxylic acid 4-[(S)-(tetrahydro-furan-3-yl)sulfonyl]-benzylamide]
IC50 (NAMPT): 9.8 nM | IC50 (A2780 cells): 423 nM

O=C(NCc1ccc(S(=O)(=O)N2CCCC(O)C2)cc1)c1cnc2nccn2c1 (racemic) [Example 32, Imidazo[1,2-a]pyrimidine-6-carboxylic acid 4-(3-hydroxy-piperidine-1-sulfonyl)-benzylamide]
IC50 (NAMPT): 7.7 nM | IC50 (A2780 cells; Homo sapiens, A2780, 72 h): 861 nM

O=C(NCc1ccc(S(=O)(=O)N2CCC[C@H]2CO)cc1)c1ccc2nccn2c1 [Example 107, Imidazo[1,2-a]pyridine-6-carboxylic acid 4-((S)-2-hydroxymethyl-pyrrolidine-1-sulfonyl)-benzylamide]
IC50 (NAMPT): 23.7 nM | IC50 (A2780 cells; Homo sapiens, A2780, 72 h): 15.4 nM

O=C(NCc1ccc(S(=O)(=O)C2CCOCC2)cc1)c1cnc2nccn2c1 [Example 21, Imidazo[1,2-a]pyrimidine-6-carboxylic acid 4-(tetrahydro-pyran-4-sulfonyl)-benzylamide]
IC50 (NAMPT): 8.7 nM | IC50 (A2780 cells): 185 nM

O=C(NCc1ccc(S(=O)(=O)N2CCOC3(CCOC3)C2)cc1)c1ccc2nccn2c1 (racemic) [Example 167, Imidazo[1,2-a]pyridine-6-carboxylic acid 4-(2,6-dioxa-9-aza-spiro[4.5]decane-9-sulfonyl)-benzylamide]
IC50 (NAMPT): 23.7 nM | IC50 (A2780 cells; Homo sapiens, A2780, 72 h): 8.8 nM

O=C(NCc1ccc(S(=O)(=O)N2CC(O)C2)cc1)c1ccc2nccn2c1 [Example 245, N-[[4-(3-hydroxyazetidin-1-yl)sulfonylphenyl]methyl] imidazo[1,2-a]pyridine-6-carboxamide]
IC50 (NAMPT): 52.3 nM | IC50 (A2780 cells; Homo sapiens, A2780, 72 h): 274 nM

NC1CCN(S(=O)(=O)c2ccc(CNC(=O)c3cc4ccncc4s3)cc2)CC1 [Example 36, Thieno[2,3-c]pyridine-2-carboxylic acid 4-(4-amino-piperidine-1-sulfonyl)-benzylamide]
IC50 (NAMPT): 11.3 nM | IC50 (A2780 cells; Homo sapiens, A2780, 72 h): 46.3 nM

O=C(NCc1ccc(S(=O)(=O)N2CC3CC2CO3)cc1)c1cc2ccncc2o1 (stereo not drawn) [Example 304, N-[[4-(2-oxa-5-azabicyclo[2.2.1]heptan-5-ylsulfonyl)phenyl]methyl]furo [2,3-c]pyridine-2-carboxamide]
IC50 (NAMPT): 65.2 nM | IC50 (A2780 cells; Homo sapiens, A2780, 72 h): 41.9 nM

O=C(NCc1ccc(S(=O)(=O)N2CCN(C3COC3)CC2)cc1)c1cnc2nccn2c1 [Example 119, Imidazo[1,2-a]pyrimidine-6-carboxylic acid 4-(4-oxetan-3-yl-piperazine-1-sulfonyl)-benzylamide]
IC50 (NAMPT): 4.4 nM | IC50 (A2780 cells; Homo sapiens, A2780, 72 h): 352 nM

O=C(NCc1ccc(S(=O)(=O)N2CCC(C(F)(F)F)C2)cc1)c1ccc2nccn2c1 (racemic) [Example 111, Imidazo[1,2-a]pyridine-6-carboxylic acid 4-(3-trifluoromethyl-pyrrolidine-1-sulfonyl)-benzylamide]
IC50 (NAMPT): 5.6 nM | IC50 (A2780 cells; Homo sapiens, A2780, 72 h): 2.5 nM

O=C(NCc1ccc(S(=O)(=O)N2CCC3OCCC3C2)cc1)c1ccc2nccn2c1 (stereo not drawn) [Example 146, Imidazo[1,2-a]pyridine-6-carboxylic acid 4-(hexahydro-furo[3,2-c]pyridine-5-sulfonyl)-benzylamide]
IC50 (NAMPT): 12.7 nM | IC50 (A2780 cells; Homo sapiens, A2780, 72 h): 3.1 nM

CC(=O)N1CCC(S(=O)(=O)c2ccc(CNC(=O)c3cnc4[nH]ncc4c3)cc2)CC1 [Example 228, N-[[4-(1-Acetylpiperidine-4-sulfonyl)phenyl]methyl]-1H-pyrazolo[3,4-b]pyridine-5-carboxamide]
IC50 (NAMPT): 207 nM | IC50 (A2780 cells; Homo sapiens, A2780, 72 h): 151 nM

CC(C)(C)OC(=O)N[C@@]12C[C@@H]1CN(S(=O)(=O)c1ccc(CNC(=O)c3ccc4nccn4c3)cc1)C2 (racemic) [Example 132, cis-[3-(4-{[(Imidazo[1,2-a]pyridine-6-carbonyl)-amino]-methyl}-benzenesulfonyl)-3-aza-bicyclo[3.1.0]hex-1-yl]-carbamic acid tert-butyl ester]
IC50 (NAMPT): 19.4 nM | IC50 (A2780 cells; Homo sapiens, A2780, 72 h): 3.22 nM

O=C(NCc1ccc(S(=O)(=O)N2CC3CCC(C2)O3)cc1)c1cc2ccncc2s1 [Example 3, Thieno[2,3-c]pyridine-2-carboxylic acid 4-(8-oxa-3-aza-bicyclo[3.2.1]octane-3-sulfonyl)-benzylamide]
IC50 (NAMPT): 12.6 nM | IC50 (A2780 cells; Homo sapiens, A2780, 72 h): 6.4 nM

O=C(NCc1ccc(S(=O)(=O)N2CC3(C2)CC(F)(F)C3)cc1)c1ccc2nccn2c1 [Example 270, N-[[4-[(6,6-difluoro-2-azaspiro[3.3]heptan-2-yl)sulfonyl]phenyl]methyl] imidazo[1,2-a]pyridine-6-carboxamide]
IC50 (NAMPT): 8.77 nM | IC50 (A2780 cells; Homo sapiens, A2780, 72 h): 6.07 nM

CCCN1CCC(S(=O)(=O)c2ccc(CNC(=O)c3cc4ccncc4o3)cc2)CC1 [Example 342, N-[[4-[(1-propyl-4-piperidyl)sulfonyl]phenyl]methyl]furo[2,3-c]pyridine-2-carboxamide]
IC50 (NAMPT): 20.3 nM | IC50 (A2780 cells; Homo sapiens, A2780, 72 h): 23 nM

O=C(NCc1ccc(S(=O)(=O)N2CCOC3CNCC32)cc1)c1ccc2nccn2c1 (stereo not drawn) [Example 327, N-[[4-(3,4a,5,6,7,7a-hexahydro-2H-pyrrolo[3,4-b][1,4]oxazin-4-ylsulfonyl)phenyl]methyl] imidazo[1,2-a]pyridine-6-carboxamide]
IC50 (NAMPT): 1300 nM | IC50 (A2780 cells; Homo sapiens, A2780, 72 h): 2000 nM

O=C(NCc1ccc(S(=O)(=O)C2CCN(S(=O)(=O)c3ccccc3)C2)cc1)c1cnc2[nH]ncc2c1 (stereo not drawn) [Example 346, N-[[4-[1-(benzenesulfonyl)pyrrolidin-3-yl]sulfonylphenyl]methyl]-1H-pyrazolo[3,4-b]pyridine-5-carboxamide]
IC50 (NAMPT): 102 nM | IC50 (A2780 cells; Homo sapiens, A2780, 72 h): 198 nM

CC(C)N1CCC([S+]([O-])c2ccc(CNC(=O)N3Cc4ccncc4C3)cc2)CC1 (stereo not drawn) [Example 363, N-[[4-[(1-isopropyl-4-piperidyl)sulfinyl]phenyl]methyl]-1,3-dihydropyrrolo[3,4-c]pyridine-2-carboxamide]
IC50 (NAMPT): 53.7 nM | IC50 (A2780 cells; Homo sapiens, A2780, 72 h): 45.6 nM
